{"source": "paper PMC13055374", "about": "“Engineered antimicrobial-derived peptides to manipulate mixed microbial systems” (Microbiology Spectrum, 2026)", "key": {"L. seeligeri [1]": {"system": "L. seeligeri", "assay_type": "cell-based, Listeria seeligeri", "conditions": "for antimicrobial activity of conjugated peptides: growth inhibition, Fig. S7 and S9", "protocol": "To determine the potency of the purified pediocin PA-1, we generated kill curves against a range of target bacteria (Fig. 1C). The concentration range tested was 3 pM to 3 μM following 10-fold serial dilutions. […] This is in approximate agreement with the published potency of pediocin PA-1 ([46]). Though the molecular mass of pediocin PA-1 is expected to be 4.5 kDa, we observed the partially purified peptide to migrate with an apparent mass of ~12.5 kDa (Fig. 1B). However, subsequent analysis by LC-MS yielded peaks of multiple m/z with the predominant peak at the expected molecular size of 4.6 kDa (Fig. S4). The purified pediocin PA-1, separated on denaturing but non-reducing SDS-PAGE (since this bacteriocin contains two crucial disulfide bonds), was subjected to agar-overlay assay using L. seeligeri as the indicator organism (Fig. S5).\nThe antimicrobial spectrum of pediocin PA-1 was assayed using a kill curve. Cultures grown overnight were resuspended in fresh medium at an OD600 of 0.05. EC50 was determined by incubating cells with varying concentrations of pediocin in a 96-well plate, and growth was measured at 600 nm after 24 h.\nFigure S7. Growth inhibition of L. seeligeri by modified and unmodified pediocin PA-1."}, "L. seeligeri [2]": {"system": "L. seeligeri", "experiment": "Cell-binding assay by flow cytometry", "set-up": "species or system Listeria seeligeri", "conditions": "for pH dependence of binding: pH 4.0, 6.0 and 7.4, Fig. S10", "protocol": "(§1) The binding affinity and avidity of pediocin to various gram-positive and gram-negative bacteria were studied using flow cytometry. Late log-phase cells were washed in the sodium phosphate buffer (5 mM, pH 6.0) and resuspended at an OD600 of 10^–3 in sodium-acetate buffer (25 mM, pH 4.0), sodium phosphate buffer (5 mM, pH 6.0), or sodium phosphate buffer (5 mM, pH 7.4) containing 1% bovine serum albumin (BSA) and 100 mM NaCl. Cells were incubated with varying concentrations of the conjugated peptide at 4°C for 30 min. The unbound peptide was removed by centrifugation, and the pellet was resuspended in its respective binding buffer containing 1% BSA. Flow cytometry was performed on an Attune NxT flow cytometer (Life Technologies/ThermoFisher Scientific, Carlsbad, CA). Data (≥10^4 events were recorded) were recorded using a […] (488 nm) at a voltage of 360 V, and gating was performed on an SSC-A versus SSC-H plot to reduce false events."}, "Enterococcus faecium": {"system": "Enterococcus faecium", "experiment": "Cell-binding assay by flow cytometry", "conditions": "pH 6.0, Fig. 3C", "protocol": "as §1"}, "L. seeligeri [3]": {"system": "L. seeligeri", "experiment": "Inhibition of the activity of full-length unmodified synthetic pediocin by truncated FITC peptides (growth inhibition curve)", "assay_type": "cell-based, Listeria seeligeri", "conditions": "Fig. S9", "source_text": "Despite similar primary structures, the pediocin-like bacteriocins differ in their target cell specificity (i.e., they differ in their antimicrobial spectra) ([49]). By determining the target cell specificity of hybrid bacteriocins containing N- and C-terminal regions from different pediocin-like bacteriocins, it has been shown that the C-termini of these bacteriocins determine target cell specificity ([49], [50]). […] Taking a cue from these studies, we proceeded to investigate whether fragments of pediocin PA-1 could serve as tags to specifically label pediocin-sensitive species without killing them. These could serve as tools to isolate target microorganisms from mixed samples. To this end, we synthesized fluorescein isothiocyanate (FITC)-conjugated versions of pediocin PA-1, a 15-mer (K20–A34) and an extended 30-mer fragment (S15–K43; Fig. S8). We first tested the bioactivity profile of FITC-conjugated pediocin and its fragments. […] Though the inactivity of 15-mer and 30-mer is expected, the loss of activity of pediocin-FITC conjugate could indicate the steric hindrance due to the fluorophore at the N-terminal, which is known to be critical for cell attachment ([53]). To test if this is due to the synthesis of the FITC-conjugate, we conjugated biotin, 7-nitrobenz-2-oxa-1,3-diazole (NBD), and Atto488 to the synthetic pediocin using EDC–NHS coupling (Fig. S6). […]"}, "L. cremoris": {"system": "L. cremoris", "experiment": "Cell-binding assay by flow cytometry", "set-up": "species or system Lactococcus cremoris", "conditions": "pH 6.0, flow cytometry, 4°C, 30 min; read-out: apparent KD", "protocol": "as §1"}, "L. plantarum": {"system": "L. plantarum", "experiment": "Cell-binding assay by flow cytometry", "set-up": "species or system Lactiplantibacillus plantarum", "conditions": "pH 6.0, Fig. 3C", "protocol": "as §1"}, "[4]": {"system": "L. seeligeri in a synthetic community", "experiment": "Binding assay in the mixed community: FACS depletion of FITC-labeled cells, 16S sequencing of the fluorescence-negative population", "assay_type": "cell-based, Listeria seeligeri", "conditions": "before versus after sorting; pH 6.0, 4°C, 30 min; Fig. 4B", "source_text": "We posited that the pediocin PA-1 characterized here could be a potential tool to modulate the abundance of specific species in an intact microbial community. To this end, we pursued two approaches: (i) using synthetic pediocin PA-1 to deplete specific species by killing and (ii) using FITC-conjugated pediocin PA-1 to deplete specific species by cell sorting. To deplete L. seeligeri by killing, we created a synthetic community of Lacticaseibacillus casei, L. plantarum, L. cremoris, E. faecium, and L. seeligeri and grew it for 2 h. We then split the culture into three parts to which we added 1 μM, 10 μM, or 0 (control) unmodified pediocin PA-1 (Lifetein), respectively. […] Next, we assessed the ability of FITC-conjugated pediocin (Ped-FITC) and its 15-mer version to deplete the target species through cell sorting. Again, we created a synthetic community containing L. seeligeri in abundance and assessed the proportion before and after fluorescence-activated cell sorting (FACS) of FITC-labeled cells. We attempted to sequence the fluorescence-positive population but were unsuccessful due to poor DNA yield. However, the genomic DNA isolated from the fluorescence-negative population indicated depletion of more than 50% in the proportion of L. seeligeri from the synthetic community (Fig. 4B). […]"}, "L. coryniformis": {"system": "L. coryniformis", "experiment": "Cell-binding assay by flow cytometry", "set-up": "species or system Lactobacillus coryniformis", "protocol": "as §1"}, "Bacillus subtilis": {"system": "Bacillus subtilis", "experiment": "Cell-binding assay by flow cytometry", "conditions": "pH 6.0, at the highest concentration (30 μM) tested", "protocol": "as §1"}}, "note": "No end group written: not given here. *: point of attachment. FITC = O=C1OC2(c3ccc(O)cc3Oc3cc(O)ccc32)c2ccc(NC(=S)*)cc21"}
{"substance": "15-mer-FITC: FITC-conjugated 15-mer fragment (K20–A34) of pediocin PA-1 (KATTCIINNGAMAWA; also: FITC-conjugated (site not given here); UniProt P29430 38-52, looked up, fragment)", "values": [{"measurement": "antimicrobial activity of conjugated peptides", "setting": "L. seeligeri [1]", "value": "completely abolished"}, {"measurement": "pH dependence of binding", "setting": "L. seeligeri [2]", "value": "higher MFI at higher pHs"}, {"measurement": "binding", "setting": "Enterococcus faecium", "value": "modest binding"}, {"measurement": "ability to inhibit the activity of the full-length unmodified synthetic pediocin", "setting": "L. seeligeri [3]", "value": "unable to do so"}, {"measurement": "Kd", "setting": "L. cremoris", "value": "38 ± 4.7", "unit": "µM"}, {"measurement": "binding", "setting": "L. plantarum", "value": "modest binding"}, {"measurement": "depletion in the proportion of L. seeligeri, fluorescence-negative population after FACS", "setting": "[4]", "value": "more than 50%"}]}
{"substance": "30-mer-FITC: FITC-conjugated extended 30-mer fragment (S15–K43) of pediocin PA-1 (SVDWGKATTCIINNGAMAWATGGHQGNHK; also: FITC-conjugated (site not given here); UniProt P29430 33-61, looked up, fragment)", "values": [{"measurement": "antimicrobial activity of conjugated peptides", "setting": "L. seeligeri [1]", "value": "completely abolished"}, {"measurement": "pH dependence of binding", "setting": "L. seeligeri [2]", "value": "higher MFI at higher pHs"}, {"measurement": "binding", "setting": "L. seeligeri [2]; pH 6.0, Fig. 3", "value": "did not show appreciable binding"}, {"measurement": "ability to inhibit the activity of the full-length unmodified synthetic pediocin", "setting": "L. seeligeri [3]", "value": "unable to do so"}]}
{"substance": "Pediocin-FITC: synthesized fluorescein isothiocyanate (FITC)-conjugated full-length pediocin PA-1 ({FITC}-KYYGNGVTCGKHSCSVDWGKATTCIINNGAMAWATGGHQGNHKC; ends and bridges not checked; also: two disulfide bonds, pairing not given here; UniProt P29430 19-62, looked up)", "values": [{"measurement": "antimicrobial activity of conjugated peptides", "setting": "L. seeligeri [1]", "value": "completely abolished"}, {"measurement": "binding under acidic conditions", "setting": "L. coryniformis; Fig. S10", "value": "surprisingly poor binding"}, {"measurement": "pH dependence of binding", "setting": "L. seeligeri [2]", "value": "strong binding to L. seeligeri at all the tested pHs"}, {"measurement": "Kd", "setting": "L. seeligeri [2]; pH 6.0, flow cytometry, 4°C, 30 min, read-out: apparent KD", "value": "0.082 ± 0.011", "unit": "µM"}, {"measurement": "binding", "setting": "Bacillus subtilis", "value": "modest binding"}, {"measurement": "depletion in the proportion of L. seeligeri, fluorescence-negative population after FACS", "setting": "[4]", "value": "more than 50%"}]}
{"substance": "Ped-488: purified biosynthetic pediocin conjugated to Atto488 using EDC–NHS chemistry (KYYGNGVTCGKHSCSVDWGKATTCIINNGAMAWATGGHQGNHKC; ends and bridges not checked; also: Atto488 conjugated by EDC–NHS chemistry (site not given here); UniProt P29430 19-62, looked up)", "values": [{"measurement": "increase of EC50 relative to the unmodified peptide", "setting": "L. seeligeri [1]; kill curve, Fig. S7", "value": "> 100", "unit": "fold"}, {"measurement": "maximum fluorescence", "setting": "L. coryniformis; flow cytometry", "value": "6,300 MFI"}]}
